Measurements taken from article doi:10.1101/2021.11.01.466777v1 (bioRxiv, 2021).
Starred links: 1 amine or outer side, 2 acyl side, 3 side chain; linkers in the order of their positions; H or OH if unused. Positions of bridges follow the written chain, without caps; N, C: chain ends. Non-standard residues stand in square brackets, D forms with d. Residues, ends and D or L forms follow the SMILES beside them. *: point of attachment. dAsp(3R-OH) = N[C@@H](C(=O)O)[C@@H](O)C(=O)O; X1 = NC[C@H](O)[C@@H](N[*:1])C(=O)[*:2]; X2 = CCC(C)(O)[C@H](N[*:1])C(=O)[*:2]; d(aIle) = CC[C@H](C)[C@@H](N)C(=O)O; d(aThr) = C[C@@H](O)[C@@H](N)C(=O)O; Myristoyl = CCCCCCCCCCCCCC(=O)*; dOrn = NCCC[C@@H](N)C(=O)O; hSer = N[C@@H](CCO)C(=O)O

Columns and labels:
[1] = test system: neutropenic female BALB/c mice; assay: Toxicity and Maximum Tolerated Dose; type: in vivo, mouse
[2] = Pharmacokinetics after IV slow bolus in uninfected mice; type: in vivo, mouse (female BALB/c); conditions: 5 mg/kg IV; for Plasma concentration, Mean: mean of n = 3
[3] = human volunteers; no reference given; cited from earlier work

Compound: CCCCCCCCCCCCCC(=O)N[C@H](CCCN)C(=O)N[C@@H](CO)C(=O)N[C@H](C(=O)N[C@@H](C(=O)N[C@@H](C(=O)N[C@H]1C(=O)NCC(=O)N[C@@H](C(C)(O)CC)C(=O)N[C@H]([C@@H](C)CC)C(=O)N[C@@H](CCO)C(=O)N[C@@H](C)C(=O)N[C@H]([C@@H](C)CC)C(=O)N[C@@H](CCC(=O)O)C(=O)O[C@@H]1C)[C@@H](O)CN)[C@@H](O)C(=O)O)C(C)C (stereo partly drawn) [turnercyclamycin A] (Myristoyl-[dOrn]SV[dAsp(3R-OH)][X1][d(aThr)]G[X2][d(aIle)][hSer]A[d(aIle)]E; ester 6-C)
- body weight change ([1]; 25 mg/kg (printed mg/mL) IV BID q12h, 24 hours after first treatment): no body weight drop was observed
- mortality ([1]; 25 mg/kg (printed mg/mL) IV BID q12h, n = 3): did not induce mortality in any mice
- Body Weight ([1]; 25 mg/kg IV bid (q12h) x1, mouse No. 7, Day 0 (first)): 17 g
- Body Weight ([1]; 25 mg/kg IV bid (q12h) x1, mouse No. 7, Day 1): 17 g
- Body Weight ([1]; 25 mg/kg IV bid (q12h) x1, mouse No. 8, Day 0 (first)): 17 g
- Body Weight ([1]; 25 mg/kg IV bid (q12h) x1, mouse No. 8, Day 1): 17 g
- body weight change ([1]; 50 mg/kg (printed mg/mL) IV BID q12h, 24 hours post-treatment): slight body weight losses were observed
- mortality ([1]; 50 mg/kg (printed mg/mL) IV BID q12h, n = 3): did not induce mortality in any mice
- Body Weight ([1]; 50 mg/kg IV bid (q12h) x1, mouse No. 4, Day 0 (first)): 16 g
- Body Weight ([1]; 50 mg/kg IV bid (q12h) x1, mouse No. 4, Day 0 (second)): 15 g
- Body Weight ([1]; 50 mg/kg IV bid (q12h) x1, mouse No. 4, Day 1): 15 g
- Body Weight ([1]; 50 mg/kg IV bid (q12h) x1, mouse No. 5, Day 0 (first)): 15 g
- Body Weight ([1]; 50 mg/kg IV bid (q12h) x1, mouse No. 5, Day 1): 14 g
- Body Weight ([1]; 50 mg/kg IV bid (q12h) x1, mouse No. 6, Day 0 (first)): 16 g
- Body Weight ([1]; 50 mg/kg IV bid (q12h) x1, mouse No. 6, Day 0 (second)): 16 g
- Body Weight ([1]; 50 mg/kg IV bid (q12h) x1, mouse No. 6, Day 1): 16 g
- mortality ([1]; 100 mg/kg IV): fatal in the first mouse
- well tolerated dose ([1]; mice, IV BID q12h): up to 25 mg/kg
- Maximum Tolerated Dose (MTD) ([1]; neutropenic female BALB/c mice, IV BID q12h, n = 3 per dose): 25 mg/kg
- Plasma concentration, Mean ([2]; 0.05 h): 53333 ng/mL
- Sample concentration in plasma ([2]; 0.05 h, sample 1, LC-MS/MS): 52235 ng/mL
- Sample concentration in plasma ([2]; 0.05 h, sample 2, LC-MS/MS): 51887 ng/mL
- Sample concentration in plasma ([2]; 0.05 h, sample 3, LC-MS/MS): 55877 ng/mL
- Plasma concentration, Mean ([2]; 0.167 h): 38646 ng/mL
- Sample concentration in plasma ([2]; 0.167 h, sample 1, LC-MS/MS): 36107 ng/mL
- Sample concentration in plasma ([2]; 0.167 h, sample 2, LC-MS/MS): 38906 ng/mL
- Sample concentration in plasma ([2]; 0.167 h, sample 3, LC-MS/MS): 40924 ng/mL
- Plasma concentration, Mean ([2]; 1 h): 29269 ng/mL
- Sample concentration in plasma ([2]; 1 h, sample 1, LC-MS/MS): 24635 ng/mL
- Sample concentration in plasma ([2]; 1 h, sample 3, LC-MS/MS): 29337 ng/mL
- Plasma concentration, Mean ([2]; 2 h): 26200 ng/mL
- Sample concentration in plasma ([2]; 2 h, sample 1, LC-MS/MS): 26373 ng/mL
- Sample concentration in plasma ([2]; 2 h, sample 2, LC-MS/MS): 25446 ng/mL
- Sample concentration in plasma ([2]; 2 h, sample 3, LC-MS/MS): 26782 ng/mL
- Plasma concentration, Mean ([2]; 4 h): 22542 ng/mL
- Sample concentration in plasma ([2]; 4 h, sample 1, LC-MS/MS): 22923 ng/mL
- Sample concentration in plasma ([2]; 4 h, sample 2, LC-MS/MS): 22209 ng/mL
- Sample concentration in plasma ([2]; 4 h, sample 3, LC-MS/MS): 22495 ng/mL
- Plasma concentration, Mean ([2]; 8 h): 11971 ng/mL
- Sample concentration in plasma ([2]; 8 h, sample 1, LC-MS/MS): 11661 ng/mL
- Sample concentration in plasma ([2]; 8 h, sample 2, LC-MS/MS): 13130 ng/mL
- Sample concentration in plasma ([2]; 8 h, sample 3, LC-MS/MS): 11123 ng/mL
- Plasma concentration, Mean ([2]; 24 h): 931 ng/mL
- Sample concentration in plasma ([2]; 24 h, sample 1, LC-MS/MS): 974 ng/mL
- Sample concentration in plasma ([2]; 24 h, sample 2, LC-MS/MS): 764 ng/mL
- Sample concentration in plasma ([2]; 24 h, sample 3, LC-MS/MS): 1054 ng/mL
- CL ([2]; mouse plasma, NCA): 0.29 mL/min/kg
- Sample concentration in plasma ([2]; time printed 0 h, sample 1, LC-MS/MS): 34373 ng/mL
- Sample concentration in plasma ([2]; time printed 0 h, sample 2, LC-MS/MS): 31954 ng/mL
- Sample concentration in plasma ([2]; time printed 0 h, sample 3, LC-MS/MS): 34645 ng/mL

Compound: daptomycin
- volume of distribution [3]: 0.1 L/kg
